From article PMC8777265, “The Environmental Pollutant Bromophenols Interfere With Sulfotransferase That Mediates Endocrine Hormones” (Frontiers in Endocrinology, 2022)
pIC50, pKi: −log10 of the molar value.

Key:
Assay type in all cases: biochemical
SULT1A3 [1] = target: T1, SULT1A3 (Homo sapiens, UniProt P0DMM9); assay: PNP sulfation, UPLC-UV, […] inhibitor
T1 construct: recombinant human enzyme, commercial (BD Gentest)

SULT1B1 [2] = target: T2, SULT1B1 (Homo sapiens, UniProt O43704); assay: PNP sulfation, UPLC-UV, […] inhibitor
T2 construct: recombinant human enzyme, commercial (BD Gentest)

SULT1A1 [3] = target: T3, SULT1A1 (Homo sapiens, UniProt P50225); assay: PNP sulfation, UPLC-UV, […] inhibitor
T3 construct: recombinant human enzyme, commercial (BD Gentest)

SULT1E1 = target: T4, SULT1E1 (Homo sapiens, UniProt P49888); assay: PNP sulfation, UPLC-UV, […] inhibitor
T4 construct: recombinant human enzyme, commercial (BD Gentest)
T4 sequence (P49888 1-294): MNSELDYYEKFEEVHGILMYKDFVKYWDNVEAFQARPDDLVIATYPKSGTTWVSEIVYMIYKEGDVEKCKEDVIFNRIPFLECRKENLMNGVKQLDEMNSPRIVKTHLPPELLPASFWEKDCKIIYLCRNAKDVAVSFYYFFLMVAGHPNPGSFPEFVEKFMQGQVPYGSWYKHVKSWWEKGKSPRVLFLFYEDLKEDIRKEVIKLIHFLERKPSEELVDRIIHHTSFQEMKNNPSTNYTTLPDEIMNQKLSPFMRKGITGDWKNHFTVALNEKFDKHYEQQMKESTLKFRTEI

SULT1A3 [4] = target: T1, SULT1A3; assay: PNP sulfation, UPLC-UV, Lineweaver-Burk with slope replot
SULT1A1 [5] = target: T3, SULT1A1; assay: PNP sulfation, UPLC-UV, single-concentration screen; details: 40 µM PNP, 40 µM PAPS, 5 mM MgCl2, 100 mM Tris-HCl pH 7.4, 37 °C
SULT1B1 [6] = target: T2, SULT1B1; assay: as above; details: 25 µM PNP, 40 µM PAPS, 5 mM MgCl2, 100 mM Tris-HCl pH 7.4, 37 °C

T2 sequence (O43704 whole entry): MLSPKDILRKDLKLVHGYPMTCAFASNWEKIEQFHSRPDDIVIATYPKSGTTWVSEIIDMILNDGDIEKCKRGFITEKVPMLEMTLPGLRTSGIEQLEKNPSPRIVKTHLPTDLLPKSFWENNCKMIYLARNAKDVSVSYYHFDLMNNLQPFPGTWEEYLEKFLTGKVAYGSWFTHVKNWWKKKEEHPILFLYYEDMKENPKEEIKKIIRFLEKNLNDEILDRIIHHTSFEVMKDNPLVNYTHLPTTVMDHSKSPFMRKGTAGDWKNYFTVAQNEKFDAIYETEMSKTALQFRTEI
T3 sequence (P50225 whole entry): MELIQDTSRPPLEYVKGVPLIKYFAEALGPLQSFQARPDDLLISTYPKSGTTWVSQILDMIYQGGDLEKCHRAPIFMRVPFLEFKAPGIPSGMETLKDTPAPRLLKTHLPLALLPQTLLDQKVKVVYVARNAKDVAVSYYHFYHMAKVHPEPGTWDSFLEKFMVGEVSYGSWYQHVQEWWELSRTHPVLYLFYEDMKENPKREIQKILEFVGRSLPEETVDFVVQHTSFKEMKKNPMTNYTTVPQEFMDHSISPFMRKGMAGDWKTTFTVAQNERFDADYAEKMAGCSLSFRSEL
T1 sequence (P0DMM9 whole entry): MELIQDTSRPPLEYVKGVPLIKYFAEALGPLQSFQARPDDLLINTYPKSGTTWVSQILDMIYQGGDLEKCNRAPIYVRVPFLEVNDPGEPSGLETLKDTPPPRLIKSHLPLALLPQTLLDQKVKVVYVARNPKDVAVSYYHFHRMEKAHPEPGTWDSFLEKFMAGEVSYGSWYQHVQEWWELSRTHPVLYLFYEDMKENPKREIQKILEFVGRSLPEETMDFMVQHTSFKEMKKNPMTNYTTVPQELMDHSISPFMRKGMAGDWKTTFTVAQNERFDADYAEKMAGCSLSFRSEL

Compound	pIC50 (SULT1A3 [1])	pIC50 (SULT1B1 [2])	pIC50 (SULT1A1 [3])	pIC50 (SULT1E1)	pKi (SULT1A3 [4])	% inhibition at 100 μM (SULT1A1 [5])	% inhibition at 100 μM (SULT1B1 [6])
Oc1cc(Br)ccc1Br [2,5-DBP]	4.89	5.27	5.91	–	–	–	–
Oc1ccccc1Br [2-BP]	5.05	5.97	5.99	4.59	–	–	–
Oc1c(Br)cc(Br)cc1Br [2,4,6-TBP]	5.40	5.98	5.99	5.22	4.79	–	–
Oc1cccc(Br)c1 [3-BP]	–	–	–	–	–	3-BP and 4-BP only showed strong inhibition ability towards SULT1A1 and SULT1B1	3-BP and 4-BP only showed strong inhibition ability towards SULT1A1 and SULT1B1
Oc1ccc(Br)cc1Br [2,4-DBP]	4.59	5.37	5.99	5.49	–	–	–
